This passage reports MIC and IC50 results from ChEMBL document CHEMBL1212788, “Mode of action of Van-M-02, a novel glycopeptide inhibitor of peptidoglycan synthesis, in vancomycin-resistant bacteria” (Antimicrob Agents Chemother, 2010).

As a reminder, the MIC is the smallest concentration in the dilution series that meets the test's criterion for growth inhibition. What is called IC50 is the concentration that inhibits the measured activity by half.

Molecules are shown by their SMILES. ≈ marks a conversion by molar mass, not a printed value. Bounds are passed on as bounds.

The test system of assay [1] is Staphylococcus aureus. Put plainly: Antibacterial activity against methicillin susceptible Staphylococcus aureus RN4220 in presence of 64 ug/mL Nalpha,Nepsilon-diacetyl-L-Lys-D-Ala-D-Ala by broth dilution method. The class given is functional.
The subject of assay [2] is Staphylococcus aureus. Put plainly: Inhibition of lipid intermediate formation in methicillin susceptible Staphylococcus aureus RN4220 assessed as reduction in N-acetyl-D-[1-3H]glucosamine incorporation in crude assay system. The class given is functional.
Assay [3] deals with Enterococcus faecalis. Put plainly: Antibacterial activity against vancomycin A resistant Enterococcus faecalis isolate SR-7914 by broth dilution method. The class given is functional. To be noted: isolate SR7914. A general note: In broth dilution the organism is exposed to a series of concentrations in liquid medium.
Assay [4] deals with Enterococcus faecalis. In words: Antibacterial activity against vancomycin B resistant Enterococcus faecalis isolate SR-23630 by broth dilution method. To be noted: isolate SR23630. The format is functional.
Assay [5] deals with Staphylococcus aureus. Put plainly: Inhibition of lipid intermediate formation in vancomycin A resistant Staphylococcus aureus isolate HIP11714 assessed as reduction in N-acetyl-D-[1-3H]glucosamine incorporation in crude assay system. The class given is functional.
The subject of assay [6] is Enterococcus faecalis. In words: Antibacterial activity against vancomycin susceptible Enterococcus faecalis isolate SR1004 by broth dilution method. The format is functional.
The subject of assay [7] is Enterococcus faecium. In words: Antibacterial activity against constitutively vancomycin B resistant Enterococcus faecium isolate SRM1101 by broth dilution method. The class given is functional.
In assay [8] the test system is Enterococcus faecium. In words: Antibacterial activity against vancomycin B resistant Enterococcus faecium isolate SR-23598 by broth dilution method. The format is functional. The conditions noted are these: isolate SR23598.
Assay [9] relates to Enterococcus faecium. In words: Antibacterial activity against vancomycin A resistant Enterococcus faecium isolate SR-7940 by broth dilution method. The conditions noted are these: isolate SR7940. The class given is functional.
For assay [10], the system named is Staphylococcus aureus. In words: Antibacterial activity against vancomycin A resistant Staphylococcus aureus isolate HIP11714 by broth dilution method. The class given is functional.
The nature of assay [11]: Inhibition of methicillin susceptible Staphylococcus aureus RN4220 transglycosylase assessed as inhibition of peptidoglycan formation by crude assay.
The subject of assay [12] is Staphylococcus aureus. In words: Antibacterial activity against vancomycin intermediate Staphylococcus aureus ATCC 700787 by broth dilution method. The format is functional.
Assay [13] in a line: Inhibition of vancomycin A resistant Staphylococcus aureus isolate HIP11714 transglycosylase assessed as inhibition of peptidoglycan formation by crude assay.
Assay [14] deals with Staphylococcus aureus. Put plainly: Antibacterial activity against methicillin susceptible Staphylococcus aureus Smith by broth dilution method. The format is functional.
Assay [15] deals with Staphylococcus aureus. Put plainly: Antibacterial activity against methicillin susceptible Staphylococcus aureus RN4220 in presence of 64 ug/mL Nalpha,Nepsilon-diacetyl-L-Lys-D-Ala-D-Lactate by broth dilution method. The class given is functional.
The subject of assay [16] is Staphylococcus aureus. In words: Antibacterial activity against methicillin susceptible Staphylococcus aureus RN4220 in presence of 8 ug/mL Nalpha,Nepsilon-diacetyl-L-Lys-D-Ala-D-Lactate by broth dilution method. The class given is functional.
The subject of assay [17] is Enterococcus faecium. In words: Antibacterial activity against vancomycin sensitive Enterococcus faecium isolate SR-16972 by broth dilution method. The format is functional. To be noted: isolate SR16972.
For assay [18], the system named is Staphylococcus aureus. In words: Antibacterial activity against methicillin susceptible Staphylococcus aureus RN4220 by broth dilution method. The format is functional.
The subject of assay [19] is Staphylococcus aureus. Put plainly: Antibacterial activity against methicillin susceptible Staphylococcus aureus RN4220 in presence of 8 ug/mL Nalpha,Nepsilon-diacetyl-L-Lys-D-Ala-D-Ala by broth dilution method. The format is functional.
Assay [20] deals with Staphylococcus aureus. Put plainly: Antibacterial activity against methicillin resistant Staphylococcus aureus SR-3637 by broth dilution method. The format is functional. The conditions noted are these: SR3637.

Take `CN[C@H](CC(C)C)C(=O)N[C@H]1C(=O)N[C@@H](CC(N)=O)C(=O)N[C@H]2C(=O)N[C@H]3C(=O)N[C@H](C(=O)N[C@H](C(=O)O)c4cc(O)cc(O)c4-c4cc3ccc4O)[C@H](O)c3ccc(c(Cl)c3)Oc3cc2cc(c3O[C@@H]2O[C@H](CO)[C@@H](O)[C@H](O)[C@H]2O[C@H]2C[C@](C)(N)[C@H](O)[C@H](C)O2)Oc2ccc(cc2Cl)[C@H]1O` [VANCOMYCIN]: the MIC was 16 µg/mL in assay [1]; above 64 µg/mL in [3]; 32 µg/mL (≈ 22.1 µM) in [4]; 2 µg/mL (≈ 1.38 µM) in assay [6]; above 64 µg/mL in assay [7]; above 64 µg/mL in assay [8]. The results for the MIC in assay [9], in assay [10] and in assay [12] were above 64 µg/mL, above 64 µg/mL and 8 µg/mL (≈ 5.52 µM), respectively. Further, the concentration for half-maximal inhibition (IC50) in assay [2] stood at 180 µg/mL (≈ 124 µM); in assay [5], 2300 µg/mL (≈ 1590 µM); in assay [11] it was 4.5 µg/mL (≈ 3.11 µM); in [13], 85 µg/mL (≈ 58.7 µM).
Regarding `Cc1ccc(C(=O)Nc2cccc(CN[C@]3(C)C[C@@H](O[C@@H]4[C@@H](Oc5c6cc7cc5Oc5ccc(cc5Cl)[C@@H](O)[C@@H](N)C(=O)N[C@@H](CC(N)=O)C(=O)N[C@H]7C(=O)N[C@H]5C(=O)N[C@H](C(=O)N[C@H](C(=O)O)c7cc(O)cc(O)c7-c7cc5ccc7O)[C@H](O)c5ccc(c(Cl)c5)O6)O[C@@H](CO)[C@H](O)[C@H]4O)O[C@H](C)[C@@H]3O)c2)c([N+](=O)[O-])c1OCc1ccccc1`, the minimal inhibitory concentration (MIC) in assay [1] worked out at 2 µg/mL; in assay [3], 8 µg/mL (≈ 4.72 µM); in [4], 4 µg/mL (≈ 2.36 µM); in assay [6], 2 µg/mL (≈ 1.18 µM); in assay [7] it was 16 µg/mL (≈ 9.43 µM); in [14], 2 µg/mL (≈ 1.18 µM). Further, the minimal inhibitory concentration (MIC) in assay [8] was found to be 4 µg/mL (≈ 2.36 µM); in assay [15] it was 1 µg/mL; in [9], 8 µg/mL (≈ 4.72 µM); in assay [16] it was 2 µg/mL; in assay [10] it was 16 µg/mL (≈ 9.43 µM); in assay [17], 2 µg/mL (≈ 1.18 µM). Also, the MIC was determined as 2 µg/mL (≈ 1.18 µM) in assay [18], 4 µg/mL (≈ 2.36 µM) in [12], 2 µg/mL in assay [19] and 2 µg/mL (≈ 1.18 µM) in assay [20]. Also, the IC50 in assay [2] was found to be 140 µg/mL (≈ 82.5 µM); in assay [5], 93 µg/mL (≈ 54.8 µM); in assay [11], 11 µg/mL (≈ 6.48 µM); in assay [13], 53 µg/mL (≈ 31.2 µM).
Take `CN[C@H](CC(C)C)C(=O)N[C@H]1C(=O)N[C@@H](CC(N)=O)C(=O)N[C@H]2C(=O)N[C@H]3C(=O)N[C@H](C(=O)N[C@H](C(=O)O)c4cc(O)cc(O)c4-c4cc3ccc4O)[C@H](O)c3ccc(c(Cl)c3)Oc3cc2cc(c3O[C@H]2O[C@@H](CO)[C@H](O)[C@@H](O)[C@@H]2O[C@@H]2C[C@@](C)(NCc3cccc(NC(=O)c4ccc(C)c(OCc5ccccc5)c4[N+](=O)[O-])c3)[C@@H](O)[C@@H](C)O2)Oc2ccc(cc2Cl)[C@H]1O`: the MIC in [1] worked out at 0.5 µg/mL; in [3], 2 µg/mL (≈ 1.1 µM); in [4], 0.5 µg/mL (≈ 0.274 µM); in assay [6], 0.25 µg/mL (≈ 0.137 µM); in assay [7], 4 µg/mL (≈ 2.19 µM); in assay [14], 0.125 µg/mL (≈ 0.0685 µM). The MIC amounted to 0.25 µg/mL (≈ 0.137 µM) in assay [8]; 0.0625 µg/mL in [15]; 1 µg/mL (≈ 0.548 µM) in assay [9]; 0.125 µg/mL in assay [16]; 4 µg/mL (≈ 2.19 µM) in assay [10]; 0.25 µg/mL (≈ 0.137 µM) in assay [17]. Moreover, the MIC is 0.125 µg/mL (≈ 0.0685 µM) in assay [18], 2 µg/mL (≈ 1.1 µM) in assay [12], 0.125 µg/mL in assay [19] and 0.25 µg/mL (≈ 0.137 µM) in assay [20]. Besides, the IC50 in assay [2] was found to be 32 µg/mL (≈ 17.5 µM); in assay [5], 76 µg/mL (≈ 41.7 µM); in assay [11], 4.2 µg/mL (≈ 2.3 µM); in assay [13], 36 µg/mL (≈ 19.7 µM).
As for `C[C@H]1O[C@H](O[C@@H]2[C@@H](Oc3c4cc5cc3Oc3ccc(cc3Cl)[C@@H](O)[C@@H](N)C(=O)N[C@@H](CC(N)=O)C(=O)N[C@H]5C(=O)N[C@H]3C(=O)N[C@H](C(=O)N[C@H](C(=O)O)c5cc(O)cc(O)c5-c5cc3ccc5O)[C@H](O)c3ccc(c(Cl)c3)O4)O[C@@H](CO)[C@H](O)[C@H]2O)C[C@@](C)(N)[C@H]1O`, the 50% inhibitory concentration (IC50) worked out at 3900 µg/mL (≈ 2950 µM) in [2], 3100 µg/mL (≈ 2340 µM) in [5], 130 µg/mL (≈ 98.3 µM) in [11] and 920 µg/mL (≈ 696 µM) in assay [13]. The minimal inhibitory concentration (MIC) in assay [3], in [4], in assay [6], in [7], in assay [14] and in [8] was above 64 µg/mL in each case. The minimal inhibitory concentration (MIC) in [9], in [10], in [17], in assay [18], in assay [12] and in [20] was above 64 µg/mL each time.
